Source: patent publication US6624140B1, “Synthetic peptides with antimicrobial and endotoxin neutralizing properties for management of the sepsis syndrome” (Academisch Ziekenhuis Bij de Universiteit van Amsterdam …, priority 1997, dated 2003)
No end group written: not given here.

Columns and labels:
TNF-α production = test: TNF-α in whole blood ex vivo after pre-incubation of LPS with peptide; type: cell-based, human; conditions: 1 to 10 μg/ml pre-incubated with 1 ng/ml LPS, even at lowest concentration 1 μg/ml, 4 h at 37° C.
Protocol: FIG. 11. Effect of pre-incubation of E. coli 0111:B4 LPS with synthetic peptides or Polymyxin B on TNF-α levels in whole blood ex vivo. The indicated amounts of synthetic, control peptides or PmB were pre-incubated with E. coli 0111:B4 LPS at 1 ng/ml for […] at 23° C., added to whole blood containing heparin at 2 I.U/ml and the TNF-α concentrations determined after incubation for 4 h at 37° C. Each value is the mean of triplicate experiments. Controls only contained LPS.
In addition, the LPS-neutralizing activity of selected synthetic peptides of the invention were compared in a more complex environment of whole blood ex vivo to determine the effect of physiological concentrations of blood components such as plasma proteins, blood cells etc. on the detoxification efficacy. In pre-incubation experiments, concentrations of synthetic peptides, control peptide or PmB from 1 to 10 μg/ml were pre-incubated with 1 ng/ml E. coli 0111:B4 LPS in pyrogen-free saline for 30 min at 23° C., added to venous blood containing heparin at 2 I.U/ml as anti-coagulant and incubated for 4 h at 37° C. TNF-α concentrations were determined in appropriately diluted cell-free supernatants as described before.

[1] = Solid-state Lipid A binding ELISA microplate assay; design: species or system Escherichia coli; conditions: for apparent binding affinity Ka for Lipid A: biotinylated derivatives, immobilized E. coli D31m4 Lipid A, Scatchard plot
Protocol: FIG. 3. Lipid A binding affinity of the synthetic peptides. Plastic ELISA microtiter plates were coated with purified E. coli D31m4 Lipid A at 1 μg/ml. Incubations were for 20 min with the indicated concentrations of synthetic peptides BP1, BP2 or BP2.1 or control peptide BPI(85-102) followed by streptavidin-HRP at a dilution of 1 in 20 000. Washing steps to remove excess peptide or streptavidin were with 50 mM Tris buffer pH 7.4 containing 0.05% (v/v) Tween 20. Development was with TMB substrate for 10 min. The optical density (O.D) at 450 nm was measured with a microplate reader and values were corrected for non-specific binding which was generally between 5 and 10%. The plotted values are the corrected means of triplicate experiments.
Double-immunodiffusion of the peptides of the invention against ‘rough’ R-type E. coli D31m4 Re-LPS (List Biological Laboratories Inc., Calif.) or the structurally more complex ‘smooth’ S-type E. coli 0111:B4 LPS (Sigma Chemical Co., Rockford, Ill.) was performed in 0.8% (w/v) agarose containing 50 mM Tris and 0.1% (w/v) Triton X100, pH 7.5. for 16 h at 20° C. PmB and BPI(85-102) were included as control compounds for comparative purposes. The microprecipitates formed were visualized by Coommassie brilliant blue staining. […] Since the amount of precipitate formed is a function of valency, the peptides of the invention appear to be capable of a high degree of intermolecular binding of LPS molecules via the Lipid A moieties. […] A turbidity assay was employed for a direct comparison of the endotoxin-binding activity or avidity of selected synthetic peptides according to the invention using the ‘rough’ serotypes E. coli Re or Rc (J5) LPS. PmB and BPI(85-102) were included as control compounds for comparative purposes. The degree of precipitation of endotoxin by the synthetic peptides according to the invention was determined by measurement of the optical density of insoluble complexes formed at 340 nm (FIG. 2). In most instances optimal complexation of Re or J5 LPS by the synthetic peptides of the invention was evident at a molar ratio of peptide to endotoxin of 1 to 2. The control BPI(85-102) peptide was required at a 4-fold molar excess for approximately the same degree of complexation. […] There was no significant difference between complexation of Re or the structurally more complex J5-LPS by the synthetic peptides. […] The Lipid A binding affinity of the synthetic peptides were directly compared in a solid-state endotoxin-binding assay. Binding characteristics of biotinylated derivatives of the synthetic peptides BP1, BP2, BP2.1 and the control peptide BPI(85-102) were determined on ELISA microtiter plates coated with E. coli D31m4 Lipid A. Specific binding of the biotinylated peptides to the immobilized Lipid A was determined by development with Streptavidin-HRP and 3, 5, 3′, 5′ tetra-methylbenzidine (TMB) substrate and expressed as the corrected optical density at 450 nm. […] The affinity of the novel synthetic peptide BP2 for endotoxin of increasing complexity as well as the effect of plasma on binding was examined with the use of the ELISA microplate assay.

[2] = tested on: Escherichia coli serotype 0111:B4; test: Bactericidal activity in liquid culture, E. coli 0111:B4; type: cell-based; conditions: for effect on cell-density of Gram-negative bacterial cultures: in words; for % bacteria killed: 10^7 E. coli 0111:B4 bacteria/ml LB medium at 37° C., concentration effective dose 3 (M^−6)
Protocol: FIGS. 1A and 1B. The effect of synthetic peptides on the survival of E. coli 0111:B4 (panel A) or S. aureus (panel B). Logarithmically growing bacterial cells at a density of 10^7 cells/ml in Luria-Bertani (LB) medium were incubated with synthetic peptides at concentrations of 3, 5 and 7 μg/ml (1, 2 and 3 μM) at 37° C. for 1 h and the residual cell density expressed as a percentage of the value obtained from bacterial cultures without added peptides.
A peptide encompassing a selected LPS-binding domain from a well characterized human antiendotoxin protein, known as bactericidal/permeability increasing protein (BPI), from amino acids 85 to 102, denoted as BPI(85-102), was included for a direct comparison of the efficacy of the endotoxin-binding domain of a naturally occurring protein and the synthetic peptides of the invention. The amino acid sequence of the BPI(85-102) peptide is:
The BPI(85-102) reference peptide was synthesized as previously described for peptides of the invention and provided with a C-terminal Cys residue for the purpose of biotinylation as previously described. […] Incubation of various concentrations of the synthetic peptides according to the invention for a limited time period on the survival of both types of bacteria again illustrated their potent anti-microbial activity as opposed to that of the BPI(85-102) peptide (FIG. 1) with the sequence corresponding to that of the potential LPS binding domain of the native BPI protein. This is indicative of a broad specificity of the synthetic peptides, in keeping with the general bactericidal properties of this class of linear amphipathic α-helical peptides. […] The B2 residue in the N-terminal repetitive sequence element in each instance, instead of an aromatic amino acid residue, as specified by the formula of the invention, was replaced with an Ala residue and the hydrophobic (C2)n element made hydrophilic by substitution with Lys and Cys residues.

Substance | inhibition of TNF-α production (TNF-α production) | difference in binding affinity for Lipid A compared with BPI(85-102) [1] | fold higher affinity for Lipid A compared with Polymyxin B [1] | apparent binding affinity Ka for Lipid A [1] | effect on cell-density of Gram-negative bacterial cultures [2] | % bacteria killed [2]
GKWKLFKKAFKKFLKILAC-OH [BP2, Gly-Lys-Trp-Lys-Leu-Phe-Lys-Lys-Ala-Phe-Lys-Lys-Phe-Leu-Lys-Ile-Leu-Ala-Cys] | almost complete inhibition | ~10 fold | approximately 20 fold | 1.9e+08 M⁻¹ | dose-dependent reduction | 
GRLRKKWKAFKKFLKILAC [BP1] | almost complete inhibition | approximately 5 fold |  | 9e+07 M⁻¹ | dose-dependent reduction | 88%
Ile-Lys-Ile-Ser-Gly-Lys-Trp-Lys-Ala-Gin-Lys-Arg-Phe-Leu-Lys-Met-Ser-Gly-(Cys) (IKISGKWKAQKRFLKMSGC; listed as Homo sapiens) [BPI(85-102), reference compound] | almost complete inhibition |  |  | 2e+07 M⁻¹ | slight effect | 31%
